Each structure is given as a SMILES string.

In one assay the target is T1, NUAK1(h) enzyme (Homo sapiens, UniProt O60285).
T1 construct: purchased Eurofins Discovery
T1 sequence (O60285 1-661): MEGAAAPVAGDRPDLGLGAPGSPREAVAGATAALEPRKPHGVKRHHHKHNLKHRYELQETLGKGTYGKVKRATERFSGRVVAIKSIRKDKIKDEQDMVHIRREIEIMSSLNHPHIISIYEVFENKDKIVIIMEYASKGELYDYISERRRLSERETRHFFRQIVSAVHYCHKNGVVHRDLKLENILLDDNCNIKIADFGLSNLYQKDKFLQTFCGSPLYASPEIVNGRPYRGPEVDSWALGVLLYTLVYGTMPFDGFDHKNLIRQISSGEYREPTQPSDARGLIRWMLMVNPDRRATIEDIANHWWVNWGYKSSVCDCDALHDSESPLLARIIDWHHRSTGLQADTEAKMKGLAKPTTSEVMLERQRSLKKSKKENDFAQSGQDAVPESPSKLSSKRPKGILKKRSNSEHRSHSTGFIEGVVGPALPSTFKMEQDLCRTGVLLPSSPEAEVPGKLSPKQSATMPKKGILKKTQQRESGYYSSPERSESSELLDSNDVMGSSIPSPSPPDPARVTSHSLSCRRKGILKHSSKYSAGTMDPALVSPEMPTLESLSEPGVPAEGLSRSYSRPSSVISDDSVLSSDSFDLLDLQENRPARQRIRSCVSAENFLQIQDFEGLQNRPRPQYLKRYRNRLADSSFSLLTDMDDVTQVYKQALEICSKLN
In words: In vitro NUAK1 enzymatic assay (Eurofins Discovery, [γ-33P]-ATP filter assay). In kind it is biochemical. The settings on record: 45 μM ATP, 40 min, room temperature; read-out: IC50, inhibitory effect on NUAK1 enzyme activity. Here is the method: In Vitro Assay to Determine the Inhibitory Effect of Compounds in the Patent on NUAK1 Enzymatic Activity
The in vitro NUAK1 enzymatic assay was carried out at Eurofins Discovery to evaluate the inhibitory effect of the compounds presented in the invention. The assay protocol is as follow: the compound to be tested was mixed with NUAK1(h) enzyme and 300 μM […] substrate in 8 mM MOPS (pH 7.0) buffer containing 0.2 mM EDTA and incubated at room temperature. A Mg/ATP mixture containing 10 mM magnesium acetate and 45 μM [y-33P]-ATP was added to start the reaction. After incubation for 40 min at room temperature, the reaction was terminated by adding 0.5% phosphoric acid. Then, 10 μL of the reaction mix was spotted onto a P30 filter paper followed with four times of wash with 0.425% phosphoric acid solution (4 min each time), and one time wash with methanol. The filter paper was air-dried and counted in a liquid scintillation counter. The values obtained were plotted against the drug concentration and the IC50 was calculated.
Table 1 summarizes the inhibitory effect (IC50) of compounds tested on the NUAK1 enzyme activity in the present invention. ++++ indicates IC50≤10 nM; […]; ++ indicates 100 nM<IC50≤1 μM; + indicates IC50>1 μM.

Another assay deals with T2, NUAK2(h) enzyme (Homo sapiens, UniProt Q9H093).
T2 construct: purchased Eurofins Discovery
T2 sequence (Q9H093 1-628): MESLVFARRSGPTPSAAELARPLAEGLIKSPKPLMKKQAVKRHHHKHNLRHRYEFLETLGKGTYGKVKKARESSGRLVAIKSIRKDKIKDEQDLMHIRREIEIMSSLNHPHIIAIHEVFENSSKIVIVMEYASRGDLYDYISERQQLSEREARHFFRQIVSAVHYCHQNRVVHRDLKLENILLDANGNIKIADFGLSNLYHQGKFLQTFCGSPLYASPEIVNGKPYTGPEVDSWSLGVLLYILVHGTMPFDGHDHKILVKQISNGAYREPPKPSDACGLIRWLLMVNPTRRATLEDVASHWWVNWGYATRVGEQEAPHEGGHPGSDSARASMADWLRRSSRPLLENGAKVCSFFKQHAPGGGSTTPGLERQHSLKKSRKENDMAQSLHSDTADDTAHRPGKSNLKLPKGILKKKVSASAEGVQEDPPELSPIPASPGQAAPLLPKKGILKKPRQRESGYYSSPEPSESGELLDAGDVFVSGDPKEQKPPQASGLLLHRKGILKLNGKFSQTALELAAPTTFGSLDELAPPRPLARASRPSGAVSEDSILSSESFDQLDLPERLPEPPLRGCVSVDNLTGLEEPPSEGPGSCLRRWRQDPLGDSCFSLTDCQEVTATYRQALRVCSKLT
The experiment in a line: In vitro NUAK2 enzymatic assay (Eurofins Discovery, [γ-33P]-ATP filter assay). In kind it is biochemical. As to conditions: 45 μM ATP, 40 min, room temperature; read-out: IC50, inhibitory effect on NUAK2 enzyme activity. Here is the method: In Vitro Assay to Determine the Inhibitory Effect of Compounds in the Patent on NUAK2 Enzymatic Activity
The in vitro NUAK2 enzymatic assay was carried out at Eurofins Discovery to evaluate the inhibitory effect of the compounds presented in the invention. The assay protocol is as follow: the compound to be tested was mixed with NUAK2(h) enzyme and 300 […] substrate in 8 mM MOPS (pH 7.0) buffer containing 0.2 mM EDTA. A Mg/ATP mixture containing 10 mM magnesium acetate and 45 μM [γ-33P]-ATP was added to start the reaction. After incubation for 40 min at room temperature, the reaction was terminated by adding 0.5% phosphoric acid. Then 10 μL of the reaction mix was spotted onto a P30 filter paper. The filter paper was washed four times with 0.425% phosphoric acid with 4 min for each wash, and one time with methanol. The filter paper was air-dried and counted in a liquid scintillation counter. The values obtained were plotted against the drug concentration and the IC50 was calculated.
Table 1 summarizes the inhibitory effect (IC50) of compounds on the NUAK2 enzyme activity in the present invention. ++++ indicates IC50≤10 nM; +++ indicates 10 nM<IC50≤100 nM; ++ indicates 100 nM<IC50≤1 μM; + indicates IC50>1 μM.

For assay [1], the system named is HEC-1-B human endometrial cancer cells. In words: CTG (CellTiter-Glo) proliferation assay on HEC-1-B cells, 7 days. It is filed as cell-based. The settings on record: 168 h, 7 days incubation, read-out: IC50, inhibitory effect on proliferation of Hec-1B cells. The method, then: CTG Assay to Evaluate the Inhibitory Effect of Compounds on HEC-1-B Human Endometrial Cancer Cells
Human endometrial cancer HEC-1-B cells were resuscitated and cultured in complete medium (MEM medium+10% FBS). When reaching about 80% confluence, the cells were gently blown away from the bottom of the culture dish with a 1 mL pipette. The cells were collected and centrifuged at 500 rpm for 3 min. The supernatant was discarded and the cell pellet was resuspend in fresh medium. Cells were counted to determine cell density and seeded into 96-well plates at a density of 1000 cells per well and incubated overnight at 37° C. in a 5% CO2 incubator. In the next day, the compounds in storage solution was serially diluted with DMSO at a ratio of 1:3 for a total of 9 concentrations. Two μL of each serially diluted solution was added to 98 μL of cell culture medium ([…]), while DMSO was mixed with culture medium similarly to be served as control. The compound dilutions were shaken and mixed. The cell culture plate with cells was removed from CO2 incubator, the culture medium was aspirated from each well, 135 μL of fresh medium was added to each well followed with 15 μL of the compound dilutions. The plates were incubated at 37° C. for 7 days in a 5% CO2 incubator. One hundred μL CellTiter-Glo reagent was added to each well and the plate was vortexed for 2 min and incubated for 10 min to fully lyse the cells. The chemiluminescence values were read using a plate reader.
The chemiluminescence values were plotted against compound concentrations to calculate the inhibitory activity of each compound on cell proliferation Cell inhibition rate (%)=(chemiluminescence value tested compound−chemiluminescence value DMSO control)/(chemiluminescence value medium control−chemiluminescence valueDMSO control)×100%.
A nonlinear S-curve regression was fitted using XLFit software to fit the data to derive a dose-effect curve, from which the IC50 values were calculated. The curve equation was Y=Bottom+(Top-Bottom)/(1+10{acute over ( )}((LogIC50-X)×slope)), where Y is the cellular inhibition rate, X is the compound concentration, Bottom refers to the lowest inhibition rate, and Top refers to the highest inhibition rate.
Table 3 summarizes the inhibitory effects (IC50) of the compounds on the proliferation of Hec-1B cells, Where ++++ indicates 100 nM<IC50≤500 nM; +++ indicates 500 nM<IC50≤1 μM; ++ indicates 1 μM<IC50≤10 μM; + indicates IC50>10 μM.
(In ATP-based viability assays light output follows the ATP content of the culture.)

For the compound `COc1cc(N2CCN(C)CC2)ccc1Nc1ncc2c(C)cc(=O)n(C3CCCC3)c2n1` [Example 27, 8-cyclopentyl-2-((2-methoxy-4-(4-methylpiperazin-1-yl)phenyl)amino)-5-methylpyrido[2,3-d]pyrimidin-7(8H)-one], the IC50 was 100 to 1000 nM on NUAK1(h) enzyme, 100 to 1000 nM at NUAK2(h) enzyme and 1000 to 10000 nM in assay [1].

With `COc1cc(N2CCN(C)CC2)ccc1Nc1ncc2ccc(=O)n(C3CC3)c2n1` [Example 23, 8-cyclopropyl-2-((2-methoxy-4-(4-methylpiperazin-1-yl)phenyl)amino)pyrido[2,3-d]pyrimidin-7(8H)-one], the figures for the IC50 (at NUAK1(h) enzyme; on NUAK2(h) enzyme; in assay [1]) were 10 to 100 nM, 100 to 1000 nM and 100 to 500 nM, respectively.

In the case of `COc1cc(N2CCN(C)CC2)ccc1Nc1ncc2ccc(=O)n(C3CCCCC3)c2n1` [Example 22, 8-cyclohexyl-2-((2-methoxy-4-(4-methylpiperazin-1-yl)phenyl)amino)pyrido[2,3-d]pyrimidin-7(8H)-one], the IC50 is at most 10 nM at NUAK1(h) enzyme, at most 10 nM on NUAK2(h) enzyme and over 10000 nM in assay [1].

Take `COc1cc(N2CCN(C)CC2)ccc1Nc1ncc2c(n1)N(C1CCCC1)C(=O)CC2` [Example 28, 8-cyclopentyl-2-((2-methoxy-4-(4-methylpiperazin-1-yl)phenyl)amino)-5,8-dihydropyrido[2,3-d]pyrimidin-7(6H)-one]: the IC50 is 100 to 1000 nM on NUAK1(h) enzyme, 10 to 100 nM at NUAK2(h) enzyme and 1000 to 10000 nM in assay [1].

With `COc1cc(N2CCN(C)CC2)ccc1Nc1ncc2c(n1)N(C1CCCC1)C(=O)NC2` [Example 2, 1-cyclopentyl-7-((2-methoxy-4-(4-methylpiperazin-1-yl)phenyl)amino)-3,4-dihydropyrimido[4,5-d]pyrimidin-2(1H)-one], the IC50 at NUAK1(h) enzyme fell in the range of 10 to 100 nM; at NUAK2(h) enzyme it was 10 to 100 nM; in assay [1] it was 1000 to 10000 nM.

Consider `COc1cc(N2CCN(C)CC2)ccc1Nc1ncc2c(n1)N(C1CCCCC1)C(=O)CC2` [Example 29, 8-cyclohexyl-2-((2-methoxy-4-(4-methylpiperazin-1-yl)phenyl)amino)-5,8-dihydropyrido[2,3-d]pyrimidin-7(6H)-one], for which the IC50 at NUAK1(h) enzyme lay in the range of 10 to 100 nM; at NUAK2(h) enzyme, 10 to 100 nM; in assay [1], 500 to 1000 nM.

Turning to `COc1cc(N2CCN(C)CC2)ccc1Nc1ncc2cnc(=O)n(C3CCCCC3)c2n1` [Example 6, 1-cyclohexyl-7-((2-methoxy-4-(4-methylpiperazin-1-yl)phenyl)amino)pyrimido[4,5-d]pyrimidin-2(1H)-one], the IC50 at NUAK1(h) enzyme is 100 to 1000 nM; at NUAK2(h) enzyme, 10 to 100 nM; in assay [1], 500 to 1000 nM.

As for `COc1cc(N2CCN(C)CC2)ccc1Nc1nnc2ccc(=O)n(C3CCCC3)c2n1` [Example 24, 5-cyclopentyl-3-((2-methoxy-4-(4-methylpiperazin-1-yl)phenyl)amino)pyrido[2,3-e][1,2,4]triazin-6(5H)-one], the figures for the IC50 (on NUAK1(h) enzyme; on NUAK2(h) enzyme; in assay [1]) were 100 to 1000 nM, 10 to 100 nM and 500 to 1000 nM, respectively.

For the compound `COc1cc(N2CCN(C)CC2)ccc1Nc1ncc2cc(C#N)c(=O)n(C3CCCC3)c2n1` [Example 26, 8-cyclopentyl-2-((2-methoxy-4-(4-methylpiperazin-1-yl)phenyl)amino)-7-oxo-7,8-dihydropyrido[2,3-d]pyrimidine-6-carbonitrile], the IC50 on NUAK1(h) enzyme was 10 to 100 nM; at NUAK2(h) enzyme, 10 to 100 nM; in assay [1], 500 to 1000 nM.

For the compound `COc1cc(N2CCN(C)CC2)ccc1Nc1ncc2cc(C)c(=O)n(C3CCCC3)c2n1` [Example 20, 8-cyclopentyl-2-((2-methoxy-4-(4-methylpiperazin-1-yl)phenyl)amino)-6-methylpyrido[2,3-d]pyrimidin-7(8H)-one], the IC50 was 10 to 100 nM at NUAK1(h) enzyme, 10 to 100 nM at NUAK2(h) enzyme and over 10000 nM in assay [1].

These data come from patent US20240124464A1, “SUBSTITUTED FUSED BICYCLIC COMPOUND AS KINASE INHIBITOR AND USE THEREOF” (IMPACT THERAPEUTICS (SHANGHAI), INC, priority 2020, published 2024).
